# Results from patent publication US9388149B2, “Disubstituted 3,4-diamino-3-cyclobutene-1,2-dione compounds for use in the treatment of chemokine-mediated diseases” (GALDERMA RESEARCH & DEVELOPMENT, priority 2011, dated 2016).
# Legend:
# [1] = molecular target: CXCR1 receptor (Homo sapiens (Human), UniProt P25024); experiment: β-arrestin recruitment test, U2OS hCXCR1 β-arrestin cells stimulated with CXCL8; type: cell-based; conditions: inhibition of CXCL8 (10 nM) induced β-arrestin 2 recruitment; *9999 signifies not active
# Sequence of CXCR1 receptor (P25024 whole entry): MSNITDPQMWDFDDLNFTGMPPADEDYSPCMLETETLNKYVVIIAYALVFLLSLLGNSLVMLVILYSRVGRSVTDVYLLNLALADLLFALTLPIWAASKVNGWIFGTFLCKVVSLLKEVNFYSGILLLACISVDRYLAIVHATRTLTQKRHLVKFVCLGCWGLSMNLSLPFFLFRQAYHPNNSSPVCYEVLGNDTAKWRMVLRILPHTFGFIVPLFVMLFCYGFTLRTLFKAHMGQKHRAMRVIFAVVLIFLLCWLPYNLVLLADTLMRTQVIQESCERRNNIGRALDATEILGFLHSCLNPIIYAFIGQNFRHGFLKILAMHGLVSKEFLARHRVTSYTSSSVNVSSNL
# Protocol: (§1) The in vitro affinity of the compounds of the present invention for the CXCR1 and CXCR2 receptors was determined on a functional test of the β-arrestin recruitment after receptor activation type.
# (§2) β-Arrestin recruitment test: “PathHunter HEK293-CXCR2” or “U2OS hCXCR1 β-arrestin” cells (DiscoveRx Corporation) were seeded overnight at 10 000 cells/well (384-well format) in 20 μl of Opti MEM I medium. A preincubation with the antagonist or the vehicle for 30 min at 37° C. and 5% CO2 was followed by 60 minutes of stimulation with CXCL8 at 37° C. and 5% CO2. The cells were then placed at ambient temperature for 30 minutes. The PathHunter detection reagent (DiscoveRx Corporation) was added. […] The data were analyzed by means of a non-linear curve procedure using the XLFit4 exploitation software (IDBS) and the IC50 values were determined.
# [2] = molecular target: CXCR2 receptor (Homo sapiens (Human), UniProt P25025); experiment: β-arrestin recruitment test, PathHunter HEK293-CXCR2 cells stimulated with CXCL8; type: cell-based; conditions: inhibition of CXCL8 (10 nM) induced β-arrestin 2 recruitment; *9999 signifies not active
# Sequence of CXCR2 receptor (P25025 whole entry): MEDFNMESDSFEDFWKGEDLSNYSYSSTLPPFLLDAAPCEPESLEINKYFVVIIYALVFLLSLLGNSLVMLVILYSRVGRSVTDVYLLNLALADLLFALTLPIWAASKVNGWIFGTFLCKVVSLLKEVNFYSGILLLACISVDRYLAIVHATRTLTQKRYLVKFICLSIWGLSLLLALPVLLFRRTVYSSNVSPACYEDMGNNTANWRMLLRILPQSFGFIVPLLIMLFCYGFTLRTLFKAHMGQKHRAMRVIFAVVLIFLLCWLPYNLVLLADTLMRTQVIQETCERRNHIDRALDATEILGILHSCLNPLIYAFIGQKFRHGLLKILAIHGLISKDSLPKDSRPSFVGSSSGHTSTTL
# Protocol: as §1, §2
# [3] = Metabolic stabilities in hepatocytes; type: in vitro ADME; conditions: compound 1 μM, sampling up to 24 hours; for Half-life time: human hepatocytes; for half-life at 1 μM: human, hepatocytes, read-out: Half-life time
# Protocol: The human hepatocytes were supplied by Biopredic in 24-well plates.
# The samples of incubation medium after addition of the test compound were taken at times t=0, 1, 2, 4, 6 and 24 hours.
# [4] = Metabolic stabilities in hepatic microsomes; conditions: hepatic microsomes 0.5 mg/ml protein, compound 1 μM, sampling up to 60 minutes
# Protocol: Hepatic microsomes (Becton Dickinson) were incubated at a protein concentration of 0.5 mg/ml in the reaction medium.
# The reaction medium of the microsomes was composed of phosphate buffer, pH: 7.4 at 100 mM, of MgCl2 at 100 mM (50/50), of an ATP-generating system composed of a mixture of nicotinamide adenine diphosphate (NADP), of glucose-6-phosphate (G6P) at 1 mg/ml and of glucose-6-phosphate dehydrogenase (G6PDH) at 4 U/ml. The compounds were tested at 1 μM (0.1% DMSO).
# The samples of incubation medium after addition of the microsomes were taken at times 5, 10, 15, 30 and 60 minutes. At each time, the metabolic reaction was stopped by adding methanol (1 volume incubation medium/3 volumes of methanol). The disappearance of the parent product was measured by LC/MS/MS analysis. The time for which 50% of parent product disappeared (T1/2) was calculated from the kinetics of disappearance of the parent product as a function of time.
# [5] = molecular target: CXCR3 (Homo sapiens (Human), UniProt P49682); experiment: Calcium flux on Chem-1 cells expressing the chemokine receptor (FLIPR TETRA), antagonist mode; conditions: IC50 CXCR3, antagonist activity, reference agonist at AC80
# Sequence of CXCR3 (P49682 whole entry): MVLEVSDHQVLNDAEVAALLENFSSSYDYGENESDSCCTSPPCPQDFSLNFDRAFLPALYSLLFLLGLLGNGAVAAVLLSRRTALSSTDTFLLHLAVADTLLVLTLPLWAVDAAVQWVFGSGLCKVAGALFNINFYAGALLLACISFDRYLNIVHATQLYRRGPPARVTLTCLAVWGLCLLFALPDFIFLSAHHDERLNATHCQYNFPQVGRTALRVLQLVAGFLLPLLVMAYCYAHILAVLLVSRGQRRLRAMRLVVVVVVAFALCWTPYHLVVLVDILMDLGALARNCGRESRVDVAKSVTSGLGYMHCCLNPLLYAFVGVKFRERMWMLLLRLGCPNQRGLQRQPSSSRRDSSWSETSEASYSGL
# Protocol: (§3) Measurement of calcium flux on cells: The experiments were carried out on the FLIPR TETRA® platform from Molecular Devices.
# (§4) Each cell line expressing a chemokine receptor was established on the basis of the Chem-1 cell stably expressing the recombinant form of the chemokine receptor and also an associated G protein, with the aim of coupling the receptor to the calcium signalling pathway.
# (§5) 21 receptors belonging to the chemokine receptor family (CCRs and CXCRs) were analyzed.
# [6] = molecular target: CCR4 (Homo sapiens (Human), UniProt P51679); experiment: as above
# Sequence of CCR4 (P51679 whole entry): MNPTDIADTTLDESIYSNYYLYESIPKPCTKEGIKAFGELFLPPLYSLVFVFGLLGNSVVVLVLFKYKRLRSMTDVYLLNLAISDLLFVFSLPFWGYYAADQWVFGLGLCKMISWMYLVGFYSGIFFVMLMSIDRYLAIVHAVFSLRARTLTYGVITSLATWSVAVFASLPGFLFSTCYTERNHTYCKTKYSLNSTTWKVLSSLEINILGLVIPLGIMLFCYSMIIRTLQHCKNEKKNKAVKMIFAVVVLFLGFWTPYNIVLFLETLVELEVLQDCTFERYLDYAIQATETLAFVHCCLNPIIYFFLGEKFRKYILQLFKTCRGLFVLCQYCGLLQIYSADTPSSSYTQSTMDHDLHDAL
# Protocol: as §3, §4, §5
Compound,IC50 [1],IC50 [2],further results
"COC(=O)CN(C)C(=O)c1cccc(Nc2c(NC(c3ccc(C)o3)C3CCCS3)c(=O)c2=O)c1O (single isomer, unassigned) [9 (Diastereoisomer 1), methyl {[2-hydroxy-3-(2-{[(5-methylfuran-2-yl)-(tetrahydrothiophen-2-yl)methyl]amino}-3,4-dioxocyclobut-1-enylamino)benzoyl]methylamino}acetate]",580 nM,153 nM,
"Cc1ccc(C(Nc2c(Nc3cccc(C(=O)N(C)C)c3O)c(=O)c2=O)C2(C)CCCO2)o1 (single isomer, unassigned) [Example 1 (Enantiomer 1 of diastereoisomer 2), 2-Hydroxy-N,N-dimethyl-3-(2-{[(5-methylfuran-2-yl)-(2-methyltetrahydrofuran-2-yl)methyl]amino}-3,4-dioxo-cyclobut-1-enylamino)benzamide]",,10000 nM,
"Cc1ccc(C(Nc2c(Nc3cccc(C(=O)N(C)C)c3O)c(=O)c2=O)C2CCCS2)o1 (single isomer, unassigned) [Example 2 (Enantiomer 1 of diastereoisomer 1), 2-Hydroxy-N,N-dimethyl-3-(2-{[(5-methylfuran-2-yl)-(tetrahydrothiophen-2-yl)methyl]amino}-3,4-dioxo-cyclobut-1-enylamino)benzamide]",,273 nM,
"Cc1ccc(C(Nc2c(Nc3cccc(C(=O)N(C)C)c3O)c(=O)c2=O)C2CCCS2)o1 (single isomer, unassigned) [Example 2 (diastereoisomer 1), 2-Hydroxy-N,N-dimethyl-3-(2-{[(5-methylfuran-2-yl)-(tetrahydrothiophen-2-yl)methyl]amino}-3,4-dioxo-cyclobut-1-enylamino)benzamide]",,135 nM,Half-life time [3]: 1.77 h; Half-life time [4]: 0.15 h
"COC(=O)[C@H]1CCCN1C(=O)c1cccc(Nc2c(NC(c3ccc(C)o3)C3CCCS3)c(=O)c2=O)c1O (single isomer, unassigned) [Example 6]",,,Half-life time [4]: 0.083 h; IC50 [5]: 140 nM
"Cc1ccc(C(Nc2c(Nc3cccc(C(=O)N(C)C)c3O)c(=O)c2=O)[C@@H]2COC(C)(C)O2)o1 (single isomer, unassigned) [Example 14 (Diastereoisomer 1)]",10000 nM,10000 nM,
"Cc1ccc(C(Nc2c(Nc3cccc(C(=O)N(C)C)c3O)c(=O)c2=O)[C@@H]2COC(C)(C)O2)o1 (single isomer, unassigned) [Example 14 (Diastereoisomer 2)]",10000 nM,1250 nM,
"COC(=O)[C@H]1CCCN1C(=O)c1cccc(Nc2c(NC(c3ccc(C)o3)C3CCCS3)c(=O)c2=O)c1O (single isomer, unassigned) [Example 20]",,,half-life at 1 μM [3]: 3.52 h; Half-life time [4]: 0.283 h; IC50 [6]: 7.2 nM; IC50 [5]: 180 nM
"Cc1ccc(C(Nc2c(Nc3cccc(C(=O)N(C)C)c3O)c(=O)c2=O)[C@H]2CCCO2)o1 (stereo in doubt) [Example 11, 2-hydroxy-N,N-dimethyl-3-(2-{[(R)-(5-methylfuran-2-yl)tetrahydrofuran-2-ylmethyl]amino}-3,4-dioxocyclobut-1-enylamino)benzamide]",1320 nM,176 nM,
"Cc1ccc(C(Nc2c(Nc3cccc(C(=O)N4CCC[C@H]4C(=O)OC(C)C)c3F)c(=O)c2=O)C2CCCS2)o1 (stereo partly drawn) [Example 4, Isopropyl (S)-1-[2-fluoro-3-(2-{[(5-methylfuran-2-yl)-(tetrahydrothiophen-2-yl)methyl]amino}-3,4-dioxocyclobut-1-enylamino)benzoyl]pyrrolidine-2-carboxylate]",1890 nM,109 nM,
"CCOC(=O)[C@@H]1CCCN1C(=O)c1cccc(Nc2c(NC(c3ccc(C)o3)C3CCCS3)c(=O)c2=O)c1F (stereo partly drawn) [Example 5, Ethyl (S)-1-[2-fluoro-3-(2-{[(5-methylfuran-2-yl)-(tetrahydrothiophen-2-yl)methyl]amino}-3,4-dioxocyclobut-1-enylamino)benzoyl]pyrrolidine-2-carboxylate]",711 nM,106 nM,
"CN(C)C(=O)c1cccc(Nc2c(NC(c3ccccc3)C3CCCO3)c(=O)c2=O)c1O (stereo not drawn) [Example 13, 3-(3,4-dioxo-2-{[phenyl(tetrahydrofuran-2-yl)methyl]amino}cyclobut-1-enylamino)-2-hydroxy-N,N-dimethylbenzamide]",1150 nM,170 nM,
"Methyl (S)-1[2-fluoro-3-(2-{[(R,S)-(5-methylfuran-2-yl)((S,R)-tetrahydrothiophen-2-yl)methyl]amino}-3,4-dioxocyclobut-1-enylamino)benzoyl]pyrrolidine-2-carboxylate [Example 3 (pair of enantiomers 1 and 2)]",812 nM,221 nM,Half-life time [3]: 2.35 h; Half-life time [4]: 0.05 h

# Further compounds by falling IC50 [2], results first:
IC50 [1],IC50 [2],Compound,further results
,134 nM,"Cc1ccc(C(Nc2c(Nc3cccc(C(=O)N(C)C)c3O)c(=O)c2=O)C2CCCS2)o1 (single isomer, unassigned) [Example 2 (Enantiomer 2 of diastereoisomer 2), 2-Hydroxy-N,N-dimethyl-3-(2-{[(5-methylfuran-2-yl)-(tetrahydrothiophen-2-yl)methyl]amino}-3,4-dioxo-cyclobut-1-enylamino)benzamide]",Half-life time [3]: 3.82 h
508 nM,115 nM,"Cc1ccc(C(Nc2c(Nc3cccc(C(=O)N(C)CC(F)(F)F)c3O)c(=O)c2=O)C2CCCS2)o1 (single isomer, unassigned) [Example 8 (Diastereoisomer 1)]",
,89 nM,"Cc1ccc(C(Nc2c(Nc3cccc(C(=O)N(C)C)c3O)c(=O)c2=O)C2(C)CCCO2)o1 (single isomer, unassigned) [Example 1 (diastereoisomer 1), 2-hydroxy-N,N-dimethyl-3-(2-{[(5-methylfuran-2-yl)-(2-methyltetrahydrofuran-2-yl)methyl]amino}-3,4-dioxocyclobut-1-enylamino)benzamide]",
483 nM,83 nM,"Cc1ccc(C(Nc2c(Nc3cccc(C(=O)N(C)C)c3O)c(=O)c2=O)[C@@H]2CCCO2)o1 (stereo in doubt) [Example 12, 2-hydroxy-N,N-dimethyl-3-(2-{[(S)-(5-methylfuran-2-yl)tetrahydrofuran-2-ylmethyl]amino}-3,4-dioxocyclobut-1-enylamino)benzamide]",
89 nM,80 nM,"COC(=O)CN(C)C(=O)c1cccc(Nc2c(NC(c3ccc(C)o3)C3CCCS3)c(=O)c2=O)c1O (single isomer, unassigned) [Example 9 (Diastereoisomer 2), methyl {[2-hydroxy-3-(2-{[(5-methylfuran-2-yl)-(tetrahydrothiophen-2-yl)methyl]amino}-3,4-dioxocyclobut-1-enylamino)benzoyl]methylamino}acetate]",
,56 nM,"Cc1ccc(C(Nc2c(Nc3cccc(C(=O)N(C)C)c3O)c(=O)c2=O)C2CCCS2)o1 (single isomer, unassigned) [Example 2 (Enantiomer 2 of diastereoisomer 1), 2-Hydroxy-N,N-dimethyl-3-(2-{[(5-methylfuran-2-yl)-(tetrahydrothiophen-2-yl)methyl]amino}-3,4-dioxo-cyclobut-1-enylamino)benzamide]",
85 nM,47 nM,"Cc1ccc(C(Nc2c(Nc3cccc(C(=O)N(C)CC(F)(F)F)c3O)c(=O)c2=O)C2CCCS2)o1 (single isomer, unassigned) [Example 8 (Diastereoisomer 2)]",
384 nM,44 nM,"Cc1ccc(C(Nc2c(Nc3cccn(C)c3=O)c(=O)c2=O)C2CCCS2)o1 (stereo not drawn) [Example 17, 3-{[(5-methylfuran-2-yl)-(tetrahydrothiophen-2-yl)methyl]amino}-4-(1-methyl-2-oxo-1,2-dihydropyridin-3-ylamino)cyclobut-3-ene-1,2-dione]",
,15 nM,"Cc1ccc(C(Nc2c(Nc3cccc(C(=O)N(C)C)c3O)c(=O)c2=O)C2CCCS2)o1 (single isomer, unassigned) [Example 2 (Enantiomer 1 of diastereoisomer 2), 2-Hydroxy-N,N-dimethyl-3-(2-{[(5-methylfuran-2-yl)-(tetrahydrothiophen-2-yl)methyl]amino}-3,4-dioxo-cyclobut-1-enylamino)benzamide]",Half-life time [3]: 3.55 h
36 nM,15 nM,"Cc1ccc([C@H](Nc2c(Nc3cccc(C(=O)N(C)CC(F)(F)F)c3O)c(=O)c2=O)C2CCCS2)o1 (single isomer, unassigned; (-)) [Example 18]","half-life at 1 μM [3]: 1.37 h; half-life at 1 μM ([4]; hepatic microsomes, pH 7.4, Half-life time (min)): 0.25 h; IC50 [6]: 97 nM; IC50 [5]: 450 nM"
